In patent publication US10653681B2, “Analgesic compounds” (Recurium IP Holdings, LLC, priority 2016, dated 2020):

Test system: male ICR mice
Experiment: Formalin paw test
Format: in vivo, mouse
Conditions: for Early Phase: early/acute phase (0-10 minutes) after 2% formalin into hind paw; for Late Phase: late/tonic phase (10-35 minutes) after 2% formalin into hind paw
Method: One test compound or the vehicle was administered to each mouse in each test group (8 mice per group). Non-fasted male ICR mice weighing 23±3 g were used. Test compounds were administered at a concentration of 30 mg/kg, 100 mg/kg or 200 mg/kg; morphine was administered at a concentration of 10 mg/kg; and acetaminophen was administered at a concentration of >100 mg/kg. The control group received the vehicle (5% DMSO/15% PEG400/10% HPbCD/0.9% Saline). After 10 minutes, a 2% formalin solution (0.02 mL) was injected into one hind paw (sub-plantar) of each mouse. Responses were measured every 5 minutes after the formalin injection for 35 minutes.
The results in Table A are for oral administration; the results in Table B are for intraperitoneal administration; the results in Table C are for intravenous administration. In Tables A, B, and C, ‘A’ designates <70 licks/sec, ‘B’ designates ≥70 licks/sec and <165 licks/sec, and ‘C’ designates ≥165 licks/sec.

[1] = intraperitoneal administration, 30 mg/kg
[2] = intravenous administration, 100 mg/kg

| SMILES | Early Phase [1] | Late Phase [1] | other results |
| --- | --- | --- | --- |
| Cc1coc(N)n1 [Compound 1] | B (‘B’ designates ≥70 licks/sec and <165 licks/sec) | C (‘C’ designates ≥165 licks/sec) | – |
| Nc1nnc(C(F)(F)F)o1 [Compound 2] | B (‘B’ designates ≥70 licks/sec and <165 licks/sec) | C (‘C’ designates ≥165 licks/sec) | – |
| CC(C)(C)c1nnc(CN)s1 [Compound 3] | A (‘A’ designates <70 licks/sec) | B (‘B’ designates ≥70 licks/sec and <165 licks/sec) | – |
| CC(C)(C)c1nnc(N)s1 [Compound 4] | B (‘B’ designates ≥70 licks/sec and <165 licks/sec) | C (‘C’ designates ≥165 licks/sec) | – |
| Nc1nnc(C(F)(F)F)s1 [Compound 5] | B (‘B’ designates ≥70 licks/sec and <165 licks/sec) | C (‘C’ designates ≥165 licks/sec) | – |
| CC(C)(C)c1nnc(N)o1 [Compound 6] | B (‘B’ designates ≥70 licks/sec and <165 licks/sec) | C (‘C’ designates ≥165 licks/sec) | – |
| CC(C)(C)c1csc(CN)n1 [Compound 7] | B (‘B’ designates ≥70 licks/sec and <165 licks/sec) | A (‘A’ designates <70 licks/sec) | – |
| NCc1nc(C(F)(F)F)cs1 [Compound 8] | A (‘A’ designates <70 licks/sec) | A (‘A’ designates <70 licks/sec) | – |
| NCCc1nc(C(F)(F)F)cs1 [Compound 9] | A (‘A’ designates <70 licks/sec) | A (‘A’ designates <70 licks/sec) | – |
| CC(C)(C)c1csc(N)n1 [Compound 10] | A (‘A’ designates <70 licks/sec) | A (‘A’ designates <70 licks/sec) | – |
| Cc1ncc(CN)s1 [Compound 13] | B (‘B’ designates ≥70 licks/sec and <165 licks/sec) | C (‘C’ designates ≥165 licks/sec) | – |
| Cc1nc(CN)cs1 [Compound 14] | B (‘B’ designates ≥70 licks/sec and <165 licks/sec) | C (‘C’ designates ≥165 licks/sec) | – |
| CCn1cc(CN)cn1 [Compound 15] | B (‘B’ designates ≥70 licks/sec and <165 licks/sec) | A (‘A’ designates <70 licks/sec) | – |
| Cc1nc(N)oc1C [Compound 16] | A (‘A’ designates <70 licks/sec) | A (‘A’ designates <70 licks/sec) | – |
| Cc1cc(CN)nn1C [Compound 17] | B (‘B’ designates ≥70 licks/sec and <165 licks/sec) | B (‘B’ designates ≥70 licks/sec and <165 licks/sec) | – |
| NCc1ccc(C(F)(F)F)cc1 [Compound 18] | B (‘B’ designates ≥70 licks/sec and <165 licks/sec) | C (‘C’ designates ≥165 licks/sec) | – |
| CC(C)(C)c1nccc(N)n1 [Compound 19] | B (‘B’ designates ≥70 licks/sec and <165 licks/sec) | C (‘C’ designates ≥165 licks/sec) | – |
| Nc1nccc(C(F)(F)F)n1 [Compound 20] | B (‘B’ designates ≥70 licks/sec and <165 licks/sec) | C (‘C’ designates ≥165 licks/sec) | – |
| Nc1cccc(C(F)(F)F)n1 [Compound 21] | B (‘B’ designates ≥70 licks/sec and <165 licks/sec) | C (‘C’ designates ≥165 licks/sec) | – |
| Nc1ncc(C(F)(F)F)cn1 [Compound 22] | B (‘B’ designates ≥70 licks/sec and <165 licks/sec) | C (‘C’ designates ≥165 licks/sec) | – |
| NCc1cccc(C(F)(F)F)n1 [Compound 24] | B (‘B’ designates ≥70 licks/sec and <165 licks/sec) | C (‘C’ designates ≥165 licks/sec) | – |
| NCCc1ccc(C(F)(F)F)cc1 [Compound 25] | A (‘A’ designates <70 licks/sec) | B (‘B’ designates ≥70 licks/sec and <165 licks/sec) | – |
| CC(C)(C)C(=O)Nc1ccc(O)cc1 [Compound 26] | – | – | Early Phase (oral administration, 200 mg/kg): B (‘B’ designates ≥70 licks/sec and <165 licks/sec); Late Phase (oral administration, 200 mg/kg): B (‘B’ designates ≥70 licks/sec and <165 licks/sec) |
| CC(=O)NCc1ccc(C(F)(F)F)cc1 [Compound 27] | – | – | Early Phase [2]: A (‘A’ designates <70 licks/sec); Late Phase [2]: A (‘A’ designates <70 licks/sec) |
| CC(=O)Nc1ccc(C(C)(C)C)cc1 [Compound 28] | – | – | Early Phase (oral administration, 200 mg/kg): B (‘B’ designates ≥70 licks/sec and <165 licks/sec); Late Phase (oral administration, 200 mg/kg): B (‘B’ designates ≥70 licks/sec and <165 licks/sec) |
| CC(=O)Nc1ccc(C(F)(F)F)cc1 [Compound 29] | – | – | Early Phase (oral administration, 200 mg/kg): A (‘A’ designates <70 licks/sec); Late Phase (oral administration, 200 mg/kg): A (‘A’ designates <70 licks/sec) |
